Assays:
FXN mRNA [1] = experiment: Gapmer screen in differentiated myotubes, FXN mRNA levels; type: cell-based; conditions: 4 days after transfection
Description: Subsequently, various oligos targeting ACTL6A, EID1, HIC1, JUND, KAT2A, PRKCD, and YEATS4 were screened in differentiated myotubes for FXN mRNA levels. Measurements were taken 4 days after transfection.

FXN protein [2] = experiment: Western blot of FXN protein in gapmer-treated GM03816 lysates; type: cell-based, human; conditions: treated vs untreated
Description: Next, a Western blot with the Abcam ab48281 FXN and Abcam ab125267 tubulin antibodies were run using treated and untreated GM03816 lysates.

FXN protein [3] = experiment: FXN protein western blot in GM03816 and GM04078 cells treated with histone lysine methyltransferase inhibitor; type: cell-based, human; conditions: 3 days of HLMi treatment, 5 μM, 2.5 μM, 1.25 μM, vs DMSO
Procedure: Results from control cells treated with DMSO and without inhibitor treatment are also shown.
Human FRDA diseased cell lines GM03816 and GM04078 were plated at 150000 cells/well. The cells were treated at various concentrations and times with a histone lysine methyltransferase inhibitor dissolved in DMSO. The antibody used for detection of FXM protein was Abcam human FXN antibody (ab48281).

FXN mRNA [4] = experiment: Screen of library of eighty epigenetic inhibitors in GM03816 FRDA diseased fibroblasts, FXN mRNA fold change; type: cell-based, human; conditions: GM03816 FRDA diseased fibroblasts, 3 days of treatment
Procedure: FXN RNA levels are indicated on the y-axis and the inhibitors used at both 1 μM and 5 μM are shown on the x-axis.
A screen of a library of eighty epigenetic inhibitors (Cayman Chemical) was performed in GM03816 FRDA fibroblasts to identify epigenetic regulators that upregulate FXN expression.

FXN mRNA [5] = experiment: Screen of epigenetic inhibitors in GM0321 normal fibroblasts, FXN RNA levels; type: cell-based, human; conditions: GM0321 normal fibroblasts, 3 days of treatment

HIC1-1: LNA/DNA gapmer to human HIC1, SEQ ID NO 70, GGCCGGTGTAGATGA (LNA modifications, chemistry not fully specified)
FXN mRNA level (FXN mRNA [1]): upregulation of FXN mRNA

YEATS4-9: LNA/DNA gapmer to human YEATS4, SEQ ID NO 91, AGTTTCACGACTTGC (LNA modifications, chemistry not fully specified)
FXN mRNA level (FXN mRNA [1]): upregulation of FXN mRNA

KAT2A-06: LNA/DNA gapmer to human KAT2A, SEQ ID NO 36, GGCGATATACTCCTT (LNA modifications, chemistry not fully specified)
FXN mRNA level (FXN mRNA [1]): upregulation of FXN mRNA

PRKCD-2: LNA/DNA gapmer to human PRKCD, SEQ ID NO 42, TGCGCATAGACTGTT (LNA modifications, chemistry not fully specified)
FXN protein level (western blot) (FXN protein [2]): strong upregulation
FXN mRNA level (FXN mRNA [1]): upregulation of FXN mRNA

JUND-1: LNA/DNA gapmer to human JUND, SEQ ID NO 61, CCGTAGAAGGGTGTT (LNA/DNA gapmer, wing pattern not given here)
FXN protein level (western blot) (FXN protein [2]): strong upregulation
FXN mRNA level (FXN mRNA [1]): upregulation of FXN mRNA

ACTL6A-03: LNA/DNA gapmer to human ACTL6A, SEQ ID NO 3, GAACGACCATTAGCA (LNA modifications, chemistry not fully specified)
FXN protein level (western blot) (FXN protein [2]): strong upregulation
FXN mRNA level (FXN mRNA [1]): upregulation of FXN mRNA

YEATS4-5: LNA/DNA gapmer to human YEATS4, SEQ ID NO 87, TCGAATTCACCCCAT (LNA modifications, chemistry not fully specified)
FXN mRNA level (FXN mRNA [1]): upregulation of FXN mRNA

ACTL6A-02: LNA/DNA gapmer to human ACTL6A, SEQ ID NO 2, ATCGCCATCTATTTC (LNA modifications, chemistry not fully specified)
FXN mRNA level (FXN mRNA [1]): upregulation of FXN mRNA

KAT2A-05: LNA/DNA gapmer to human KAT2A, SEQ ID NO 35, CATTGACCAGCTCCA (LNA modifications, chemistry not fully specified)
FXN mRNA level (FXN mRNA [1]): upregulation of FXN mRNA

EID1-04: LNA/DNA gapmer to human EID1, SEQ ID NO 12, AGCTCTTCGATAAAA (LNA modifications, chemistry not fully specified)
FXN mRNA level (FXN mRNA [1]): upregulation of FXN mRNA

JUND-6: LNA/DNA gapmer to human JUND, SEQ ID NO 66, TGGCTCGTCCTTGAG (LNA modifications, chemistry not fully specified)
FXN mRNA level (FXN mRNA [1]): upregulation of FXN mRNA

COc1cc2nc(N3CCCN(C)CC3)nc(NC3CCN(Cc4ccccc4)CC3)c2cc1OC [HLMi, 2-(Hexahydro-4-methyl-1H-1,4-diazepin-1-yl)-6,7-dimethoxy-N-(1-(phenylmethyl)-4-piperidinyl)-4-quinazolinamine]
FXN protein level (western blot) (FXN protein [3]): FXN human protein upregulation

ACTL6A-04: LNA/DNA gapmer to human ACTL6A, SEQ ID NO 4, GCCCAGTAGAACGAC (LNA modifications, chemistry not fully specified)
FXN mRNA level (FXN mRNA [1]): upregulation of FXN mRNA

Cl.N[C@@H]1C[C@H]1c1ccccc1 (racemic) [2-PCPA (hydrochloride)]
3816 1 uM (FXN mRNA fold change) (FXN mRNA [4]; 1 uM inhibitor): 1.058
3816 5 uM (FXN mRNA fold change) (FXN mRNA [4]; 5 uM inhibitor): 0.8786
FXN mRNA fold change, 321B 1 uM (FXN mRNA [5]; 1 uM inhibitor): 0.7149
FXN mRNA fold change, 321B 5 uM (FXN mRNA [5]; 5 uM inhibitor): 0.7888

O=C(O)C(Cc1c[nH]c2ccccc12)N1C(=O)c2ccccc2C1=O (stereo not drawn) [RG-108]
3816 1 uM (FXN mRNA fold change) (FXN mRNA [4]; 1 uM inhibitor): 1.001
3816 5 uM (FXN mRNA fold change) (FXN mRNA [4]; 5 uM inhibitor): 0.8966
FXN mRNA fold change, 321B 5 uM (FXN mRNA [5]; 5 uM inhibitor): 0.6222

COc1ccccc1S(=O)(=O)Nc1ccc2c(c1)CN(C)C(=O)N2 [PFI-1]
3816 1 uM (FXN mRNA fold change) (FXN mRNA [4]; 1 uM inhibitor): 0.9175
3816 5 uM (FXN mRNA fold change) (FXN mRNA [4]; 5 uM inhibitor): 0.923
FXN mRNA fold change, 321B 1 uM (FXN mRNA [5]; 1 uM inhibitor): 0.9577
FXN mRNA fold change, 321B 5 uM (FXN mRNA [5]; 5 uM inhibitor): 0.9071

NC(=O)[C@H](CCCN=C(N)CF)NC(=O)c1ccccc1 [F-Amidine]
3816 1 uM (FXN mRNA fold change) (FXN mRNA [4]; 1 uM inhibitor): 0.7818
3816 5 uM (FXN mRNA fold change) (FXN mRNA [4]; 5 uM inhibitor): 0.6484
FXN mRNA fold change, 321B 1 uM (FXN mRNA [5]; 1 uM inhibitor): 0.9152
FXN mRNA fold change, 321B 5 uM (FXN mRNA [5]; 5 uM inhibitor): 0.9697

COc1cc2c(NC3CCN(C)CC3)nc(N3CCCN(C)CC3)nc2cc1OCCCN(C)C [UNC0224, 7-[3-(Dimethylamino)propoxy]-2-(hexahydro-4-methyl-1H-1,4-diazepin-1-yl)-6-methoxy-N-(1-methyl-4-piperidinyl)-4-quinazolinamine, reference compound]
fold induction at 1 µM (FXN mRNA [4]; Homo sapiens, Fibroblast, 72 h, 1 uM inhibitor, read-out: 3816 1 uM (FXN mRNA fold change)): 0.958
fold induction at 5 µM (FXN mRNA [4]; Homo sapiens, Fibroblast, 72 h, 5 uM inhibitor, read-out: 3816 5 uM (FXN mRNA fold change)): 0.656
fold induction at 1 µM (FXN mRNA [5]; Homo sapiens, Fibroblast, 72 h, 1 uM inhibitor, read-out: FXN mRNA fold change, 321B 1 uM): 0.876
fold induction at 5 µM (FXN mRNA [5]; Homo sapiens, Fibroblast, 72 h, 5 uM inhibitor, read-out: FXN mRNA fold change, 321B 5 uM): 0.875

NC(=O)[C@H](CCCN=C(N)CCl)NC(=O)c1ccccc1 [Cl-Amidine]
3816 1 uM (FXN mRNA fold change) (FXN mRNA [4]; 1 uM inhibitor): 1.153
3816 5 uM (FXN mRNA fold change) (FXN mRNA [4]; 5 uM inhibitor): 0.9028
FXN mRNA fold change, 321B 1 uM (FXN mRNA [5]; 1 uM inhibitor): 0.9432
FXN mRNA fold change, 321B 5 uM (FXN mRNA [5]; 5 uM inhibitor): 0.9931
